Patent US20040152722A1 (priority 2001, published 2004)

Experiments:
[1] = tested on: Rigidity Model of Mouse Induced By Haloperidol; conditions: in vivo, po
[2] = tested on: Tremor Model of Mice Induced by Agonist of Cholinergic M-Receptor: Arecaline; conditions: mouse, in vivo, po

SMILES: OC(CCN1CCCCC1)(c1ccccc1)C1CCCCC1 (centres unmarked) [Benzhexol]
- ED50 + L95 [1]: 19.56 ± 1.44 mg/kg
- ED50 + L95 [2]: 8.82 ± 0.83 mg/kg
